# Laboratory results taken from article PMC10199020 (Nature Communications, 2023).
# Bridge positions count the residues as written; N and C are the ends. Square brackets hold non-standard residues; d marks the D form. Peptide text beside a SMILES is read from it. * marks the point of attachment. 5TAMRA = CN(C)c1ccc2c(c1)Oc1cc(N(C)C)ccc1C21OC(=O)c2cc(C(=O)*)ccc21; 2Nal = N[C@@H](Cc1ccc2ccccc2c1)C(=O)O; Pen = CC(C)(S)[C@H](N)C(=O)O; Aib = CC(C)(N)C(=O)O
# Key:
# C115Y mutated IL23R = biological target: T1, C115Y mutated IL23R (Homo sapiens, UniProt P42701+Q5VWK5, C115Y); assay: P630-TMR NanoBRET binding assay, C115Y mutant; conditions: for Mean NanoBRET binding signal (Figure 7 panel b): NL-IL23R (C115Y) + IL12Rβ1
# T1 construct: expressed in transfected cells; host or cells: HEK293T, transient transfection
# T1 sequence (Q5VWK5 24-629 C115Y, other chains not shown): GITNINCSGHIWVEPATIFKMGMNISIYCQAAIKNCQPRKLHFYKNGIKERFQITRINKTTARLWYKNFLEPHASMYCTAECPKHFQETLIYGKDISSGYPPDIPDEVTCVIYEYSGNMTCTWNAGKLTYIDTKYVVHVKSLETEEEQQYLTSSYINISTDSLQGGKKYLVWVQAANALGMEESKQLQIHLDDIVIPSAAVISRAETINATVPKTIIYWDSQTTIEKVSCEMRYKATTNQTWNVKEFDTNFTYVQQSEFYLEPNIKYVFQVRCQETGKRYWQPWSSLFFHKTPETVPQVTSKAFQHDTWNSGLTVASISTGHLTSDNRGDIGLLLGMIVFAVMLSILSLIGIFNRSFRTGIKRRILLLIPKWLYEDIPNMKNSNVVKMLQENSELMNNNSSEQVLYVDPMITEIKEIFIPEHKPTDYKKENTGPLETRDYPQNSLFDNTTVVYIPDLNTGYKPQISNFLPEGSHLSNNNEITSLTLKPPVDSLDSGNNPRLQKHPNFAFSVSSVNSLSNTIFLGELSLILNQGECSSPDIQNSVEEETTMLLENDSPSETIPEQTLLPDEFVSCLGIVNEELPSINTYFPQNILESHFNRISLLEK
# Protocol: Data are mean ± SEM from five (C115Y) or four (wildtype) independent experiments conducted in duplicate or triplicate. Details on absolute number of data points included for each concentration are provided in the associated Source Data file.
# (§1) Media was removed from white 96-well microplates containing transfected cells and replaced with fluoroprobe in the presence or absence of antagonist in 50 μL Hanks Balanced Salt Solution (HBSS) with 1 mg/mL BSA (Merck). After a 1-hour incubation at 37 °C without CO2, 5 μL of HBSS containing 77 μM furimizine was added to each well (final concentration 7 μM), the plate incubated for 5-minutes and the BRET signal measured using a PheraStar FS plate reader (BMG Labtech; data acquisition software version 5.41; MARS analysis software version 3.32) with a 450 ± 30 nm and >550 nm long pass filters. P630-TMR binding assays were normalised to a final DMSO concentration of 0.1%.
# NL-IL12Rβ1 with IL23R = biological target: T2, NL-IL12Rβ1 with IL23R (Homo sapiens, UniProt Q5VWK5); assay: P630-TMR NanoBRET binding assay, NL-IL12Rβ1 with IL23R; conditions: for BRET ratio, Specific (Mean) / BRET ratio, Non-specific (Mean): Fig. 2e; for BRET ratio, Non-specific (Mean): with 10 μM P630; for % maximum BRET ratio (Mean): Figure 2 sheet Panel g; for % maximum BRET ratio (Mean) / BRET ratio with non-specific binding subtracted (Mean): IL23R + NL-IL12RB1; for BRET ratio with non-specific binding subtracted (Mean): Figure 2 sheet Panels f, h
# T2 construct: untagged full-length IL23R could be measured in the membranes of living cells; expressed in transfected cells; host or cells: HEK293T, transient transfection
# T2 sequence (Q5VWK5 24-629, other chains not shown): as the sequence (Q5VWK5 24-629 C115Y, other chains not shown) above, with Y92C counted along it
# Text: A standard curve was used to predict the expression level of NanoLuc labelled receptor in each experiment (Supplementary Fig. 1).
# Fig. 2 Creation and characterisation of a fluorescent cyclic peptide probe for IL23R. […] Data are normally mean ± SEM from five independent experiments. Details on absolute number of data points included for each concentration are provided in the associated Source Data file. In each individual saturation experiment triplicate determinations were normally made for total binding and duplicate measurements were made for non-specific binding.
# as §1, with “filters.” for “filters. P630-TMR binding assays were normalised to a final DMSO concentration of 0.1%.”
# Ligand binding data were fitted with the equation:2 BRETratio=Bmax[A]/([A]+KD)+(BA+C). Where ‘Bmax’ is the maximum specific binding BRET signal, ‘[A]’ is fluorescent probe concentration, ‘B’ is the non-specific binding component’s slope and ‘C’ is the Y intercept.
# Specific binding data was generated by subtracting the BRET values gained in the presence of an excess of unlabelled probe from the BRET ratios gained in the absence of unlabelled probe. Specific binding data were fit using the equation:3 Y=Bmax[B]/(B+KD) where ‘Bmax’ is the maximum specific binding signal of the curve and ‘[B]’ is the concentration of fluorescent probe.
# [1] = biological target: HiBit-IL23R and LgBit-IL12Rβ1 (Homo sapiens, UniProt Q5VWK5); assay: NanoBiT BRET binding assay; parameters: expressed in transfected cells; host or cells: HEK293T, transient transfection; conditions: for BRET ratio, Non-specific (Mean) / BRET ratio, Specific (Mean): Fig. 3b, NanoBiT complemented receptors; for % of P630-TMR specific Bmax (Mean): Fig. 3d, HiBit-IL23R + LgBit-IL12RB1
# Sequence of HiBit-IL23R and LgBit-IL12Rβ1 (Q5VWK5 24-629, other chains not shown): as the sequence (Q5VWK5 24-629 C115Y, other chains not shown) above, with Y92C counted along it
# Text: Finally, we utilised a NanoBiT BRET system in which a complemented luciferase with fragments bound to both receptor subunits (Fig. 3) can be used as a BRET donor to measure interactions with binary receptor complexes.
# Data in b are mean ± SEM from three independent experiments. In each individual experiment, triplicate determinations were made for total binding and duplicate or triplicate determinations made for non-specific binding. Data in c are the mean values obtained in five independent experiments, each conducted with six replicates. […] Data in d are the mean ± SEM from five (NL-IL23R and NL-23R + IL12Rβ1) or three (HiBit-IL23R + LgBit-IL12Rβ1) independent experiments. Source data are provided as a Source Data file.
# as §1, with “filters.” for “filters. P630-TMR binding assays were normalised to a final DMSO concentration of 0.1%.”
# [2] = NL-IL12Rβ1 and IL23R, P630-TMR 0.457247 nM
# [3] = NL-IL12Rβ1 and IL23R, P630-TMR 1.37174 nM
# [4] = NL-IL12Rβ1 and IL23R, P630-TMR 4.11523 nM
# [5] = NL-IL12Rβ1 and IL23R, P630-TMR 12.3457 nM
# [6] = NL-IL12Rβ1 and IL23R, P630-TMR 37.037 nM
# [7] = NL-IL12Rβ1 and IL23R, P630-TMR 111.111 nM
# [8] = NL-IL12Rβ1 and IL23R, P630-TMR 1000 nM
# [9] = NL-IL12Rβ1 and IL23R, P630-TMR 3000 nM
smiles,measurement,setting,value
COc1ccc(C[C@H](NC(=O)[C@H]2NC(=O)[C@H](CCC(N)=O)NC(=O)[C@H](Cc3c[nH]c4ccccc34)NC(=O)[C@H]([C@@H](C)O)NC(=O)[C@H](CC(N)=O)NC(=O)[C@@H](NC(C)=O)C(C)(C)SSC2(C)C)C(=O)N[C@@H](Cc2ccc3ccccc3c2)C(=O)NC(C)(C)C(=O)N[C@@H](CCC(=O)O)C(=O)N[C@@H](CC(N)=O)C(=O)N[C@@H](CC(N)=O)C(=O)N[C@@H](CCCCNC(=O)c2ccc3c(c2)C(=O)OC32c3ccc(N(C)C)cc3Oc3cc(N(C)C)ccc32)C(N)=O)cc1 [P630-TMR] (Ac-[Pen]NTWQ[Pen]Y(Me)[2Nal][Aib]ENNK(5TAMRA)-NH2; disulfide 1-6),Binding to C115Y mutant receptor,C115Y mutated IL23R,blocked specific binding
same,Mean NanoBRET binding signal (Figure 7 panel b),C115Y mutated IL23R; [P630-TMR] 0.8 nM,-0.003437
same,Mean NanoBRET binding signal (Figure 7 panel b),C115Y mutated IL23R; [P630-TMR] 4 nM,-0.009288
same,Mean NanoBRET binding signal (Figure 7 panel b),C115Y mutated IL23R; [P630-TMR] 20 nM,-0.006407
same,Mean NanoBRET binding signal (Figure 7 panel b),C115Y mutated IL23R; [P630-TMR] 100 nM,-0.004647
same,Mean NanoBRET binding signal (Figure 7 panel b),C115Y mutated IL23R; [P630-TMR] 500 nM,-0.001312
same,Mean NanoBRET binding signal (Figure 7 panel b),C115Y mutated IL23R; [P630-TMR] 2000 nM,0.003535
same,"BRET ratio, Specific (Mean)",NL-IL12Rβ1 with IL23R; [2],0.2494
same,"BRET ratio, Specific (Mean)",NL-IL12Rβ1 with IL23R; [3],0.2506
same,"BRET ratio, Specific (Mean)",NL-IL12Rβ1 with IL23R; [4],0.2544
same,"BRET ratio, Specific (Mean)",NL-IL12Rβ1 with IL23R; [5],0.2565
same,"BRET ratio, Specific (Mean)",NL-IL12Rβ1 with IL23R; [6],0.2604
same,"BRET ratio, Specific (Mean)",NL-IL12Rβ1 with IL23R; [7],0.269
same,"BRET ratio, Specific (Mean)",NL-IL12Rβ1 with IL23R; [8],0.2823
same,"BRET ratio, Specific (Mean)",NL-IL12Rβ1 with IL23R; [9],0.2959
same,"BRET ratio, Non-specific (Mean)",NL-IL12Rβ1 with IL23R; [2],0.245
same,"BRET ratio, Non-specific (Mean)",NL-IL12Rβ1 with IL23R; [3],0.2494
same,"BRET ratio, Non-specific (Mean)",NL-IL12Rβ1 with IL23R; [4],0.2477
same,"BRET ratio, Non-specific (Mean)",NL-IL12Rβ1 with IL23R; [5],0.2499
same,"BRET ratio, Non-specific (Mean)",NL-IL12Rβ1 with IL23R; [6],0.2505
same,"BRET ratio, Non-specific (Mean)",NL-IL12Rβ1 with IL23R; [7],0.2497
same,"BRET ratio, Non-specific (Mean)",NL-IL12Rβ1 with IL23R; [8],0.2599
same,"BRET ratio, Non-specific (Mean)",NL-IL12Rβ1 with IL23R; [9],0.2729
same,"BRET ratio, Non-specific (Mean)","NL-IL12Rβ1 with IL23R; NL-IL12Rβ1 and IL23R, P630-TMR […]",0.2519
same,% maximum BRET ratio (Mean),NL-IL12Rβ1 with IL23R; P630-TMR 0.457247 nM,20.2943%
same,% maximum BRET ratio (Mean),NL-IL12Rβ1 with IL23R; P630-TMR 1.37174 nM,3.037%
same,% maximum BRET ratio (Mean),NL-IL12Rβ1 with IL23R; P630-TMR 4.11523 nM,30.2039%
same,% maximum BRET ratio (Mean),NL-IL12Rβ1 with IL23R; P630-TMR 12.3457 nM,28.4128%
same,% maximum BRET ratio (Mean),NL-IL12Rβ1 with IL23R; P630-TMR 37.037 nM,44.6085%
same,% maximum BRET ratio (Mean),NL-IL12Rβ1 with IL23R; P630-TMR 111.111 nM,87.2944%
same,% maximum BRET ratio (Mean),NL-IL12Rβ1 with IL23R; P630-TMR 1000 nM,109.773%
same,% maximum BRET ratio (Mean),NL-IL12Rβ1 with IL23R; P630-TMR 3000 nM,100.001%
same,BRET ratio with non-specific binding subtracted (Mean),NL-IL12Rβ1 with IL23R; P630-TMR 0.457247 nM,0.00447
same,BRET ratio with non-specific binding subtracted (Mean),NL-IL12Rβ1 with IL23R; P630-TMR 1.37174 nM,0.001281
same,BRET ratio with non-specific binding subtracted (Mean),NL-IL12Rβ1 with IL23R; P630-TMR 4.11523 nM,0.006719
same,BRET ratio with non-specific binding subtracted (Mean),NL-IL12Rβ1 with IL23R; P630-TMR 12.3457 nM,0.00665
same,BRET ratio with non-specific binding subtracted (Mean),NL-IL12Rβ1 with IL23R; P630-TMR 37.037 nM,0.009959
same,BRET ratio with non-specific binding subtracted (Mean),NL-IL12Rβ1 with IL23R; P630-TMR 111.111 nM,0.01927
same,BRET ratio with non-specific binding subtracted (Mean),NL-IL12Rβ1 with IL23R; P630-TMR 1000 nM,0.02313
same,BRET ratio with non-specific binding subtracted (Mean),NL-IL12Rβ1 with IL23R; P630-TMR 3000 nM,0.02294
same,Kd,"NL-IL12Rβ1 with IL23R; NL-IL12Rβ1 and IL23R, mean ± SEM",55.2 ± 10.5 nM
same,"Bmax, fold lower than NL-IL23R with IL12Rβ1",NL-IL12Rβ1 with IL23R; NL-IL12Rβ1 with IL23R,42.53 fold
same,"BRET ratio, Non-specific (Mean)",[1]; P630-TMR 1.37174 nM,0.09875
same,"BRET ratio, Specific (Mean)",[1]; P630-TMR 1.37174 nM,0.105
same,"BRET ratio, Non-specific (Mean)",[1]; P630-TMR 4.11523 nM,0.09641
same,"BRET ratio, Specific (Mean)",[1]; P630-TMR 4.11523 nM,0.1138
same,"BRET ratio, Non-specific (Mean)",[1]; P630-TMR 12.3457 nM,0.09986
same,"BRET ratio, Specific (Mean)",[1]; P630-TMR 12.3457 nM,0.141
same,"BRET ratio, Non-specific (Mean)",[1]; P630-TMR 37.037 nM,0.1012
same,"BRET ratio, Specific (Mean)",[1]; P630-TMR 37.037 nM,0.1913
same,"BRET ratio, Non-specific (Mean)",[1]; P630-TMR 111.111 nM,0.1006
same,"BRET ratio, Specific (Mean)",[1]; P630-TMR 111.111 nM,0.2562
same,"BRET ratio, Non-specific (Mean)",[1]; P630-TMR 1000 nM,0.1066
same,"BRET ratio, Specific (Mean)",[1]; P630-TMR 1000 nM,0.3269
same,"BRET ratio, Non-specific (Mean)",[1]; P630-TMR 3000 nM,0.1175
same,"BRET ratio, Specific (Mean)",[1]; P630-TMR 3000 nM,0.3365
same,% of P630-TMR specific Bmax (Mean),[1]; P630-TMR 1.37174 nM,2.813%
same,% of P630-TMR specific Bmax (Mean),[1]; P630-TMR 4.11523 nM,8.07%
same,% of P630-TMR specific Bmax (Mean),[1]; P630-TMR 12.3457 nM,19.2912%
same,% of P630-TMR specific Bmax (Mean),[1]; P630-TMR 37.037 nM,41.1077%
same,% of P630-TMR specific Bmax (Mean),[1]; P630-TMR 111.111 nM,71.2465%
same,% of P630-TMR specific Bmax (Mean),[1]; P630-TMR 1000 nM,99.3007%
same,% of P630-TMR specific Bmax (Mean),[1]; P630-TMR 3000 nM,100%
same,Kd,"[1]; HiBit-IL23R and LgBit-IL12Rβ1, mean ± SEM",53.5 ± 4.4 nM
